According to the supplement of paper PMC11451515:

Legend:
Settings in all cases: 48 h
SEM cells [1] = test: AUC of viability dose-response curve (% viability x log10 dose units); higher = less sensitive
How it was run: (§1)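 Over 48 h at 37°C, leukemia cells in 1536-well plates (500 or 1000 cells/well), adapted to each medium, received library compounds in DMSO at 11 threefold doses from 47 μM to 0.79 nM. CellTiter-Glo One luminescence, normalised per plate to DMSO and cell-free wells, was fitted by a four-parameter log-logistic function of log10 dose. The area under the curve was then integrated by trapezoidal rule, after scaling curves above full viability and removing those that failed quality control.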

P12-Ichikawa [2] = test: as above
How it was run: as §1

NOMO1 [3] = test: as above
How it was run: as §1

SEM cells [4] = test: cell viability relative to DMSO control; higher = less cytotoxic
How it was run: (§2)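 Three leukemia lines were tested: NOMO1 and SEM at 500 cells/well and P12-Ichikawa at 1000 cells/well. Each was adapted for at least four passages in each medium and seeded in 5 μl in 1536-well plates, and library compounds in DMSO were pin-dosed from 47 μM to 0.79 nM in 11 threefold steps. After 48 h at 37°C, CellTiter-Glo One luminescence was read. Viability is a percentage relative to DMSO wells on each plate, with cell-free wells as background.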

P12-Ichikawa [5] = test: as above
How it was run: as §2

NOMO1 [6] = test: as above
How it was run: as §2

COc1ccc(/C=C\c2cc(OC)c(OC)c(OC)c2)cc1NC(=O)[C@H](N)CO
AUC of viability dose-response curve
Settings	NOMO1 [3]	P12-Ichikawa [2]	SEM cells [1]
HPLM + 10% dialyzed FBS	209	179	190
RPMI 5 mM glucose + 10% FBS	188	157	167
RPMI 5 mM glucose + 10% dialyzed FBS	206	202	186

cell viability [%], RPMI 5 mM glucose + 10% FBS
Settings	P12-Ichikawa [5]	SEM cells [4]
0.000781 µM	121	104
0.00234 µM	144	118
0.00702 µM	125	115
0.0211 µM	50.9	58.1
0.0632 µM	24.6	15
0.19 µM	13.8	11.1
0.569 µM	9.28	14.7
1.71 µM	7.31	7.29
5.12 µM	8.08	6.77
15.4 µM	4.52	3.55
46.1 µM	4.09	3.19

N[S+](=O)([O-])c1ccc(Nc2nc(OCC3CCCCC3)c3[nH]cnc3n2)cc1
AUC of viability dose-response curve
Settings	HPLM + 10% dialyzed FBS	RPMI 5 mM glucose + 10% FBS	RPMI 5 mM glucose + 10% dialyzed FBS
NOMO1 [3]	330	346	357
SEM cells [1]	307	276	298

cell viability [%]
Settings	NOMO1 [6]	P12-Ichikawa [5]	SEM cells [4]
HPLM + 10% dialyzed FBS, 0.000781 µM	111	114	103
HPLM + 10% dialyzed FBS, 0.00234 µM	131	115	117
HPLM + 10% dialyzed FBS, 0.00702 µM	117	117	106
HPLM + 10% dialyzed FBS, 0.0211 µM	116	118	113
HPLM + 10% dialyzed FBS, 0.0632 µM	119	48	101
HPLM + 10% dialyzed FBS, 0.19 µM	73.7	24.2	115
HPLM + 10% dialyzed FBS, 0.569 µM	38.2	13.1	43
HPLM + 10% dialyzed FBS, 1.71 µM	41.3	15.9	24
HPLM + 10% dialyzed FBS, 5.12 µM	58.2	20.3	23.8
HPLM + 10% dialyzed FBS, 15.4 µM	56.1	52.2	16.4
HPLM + 10% dialyzed FBS, 46.1 µM	42.9	73	3.57
RPMI 5 mM glucose + 10% FBS, 0.000781 µM	97.1	117	–
RPMI 5 mM glucose + 10% FBS, 0.00234 µM	106	118	–
RPMI 5 mM glucose + 10% FBS, 0.00702 µM	109	115	–
RPMI 5 mM glucose + 10% FBS, 0.0211 µM	107	120	–
RPMI 5 mM glucose + 10% FBS, 0.0632 µM	103	103	–
RPMI 5 mM glucose + 10% FBS, 0.19 µM	103	109	–
RPMI 5 mM glucose + 10% FBS, 0.569 µM	66.9	32.3	–
RPMI 5 mM glucose + 10% FBS, 1.71 µM	28.4	14.7	–
RPMI 5 mM glucose + 10% FBS, 5.12 µM	24.3	15.2	–
RPMI 5 mM glucose + 10% FBS, 15.4 µM	31.4	19.4	–
RPMI 5 mM glucose + 10% FBS, 46.1 µM	47.1	66.2	–
RPMI 5 mM glucose + 10% dialyzed FBS, 0.000781 µM	119	120	109
RPMI 5 mM glucose + 10% dialyzed FBS, 0.00234 µM	115	123	134
RPMI 5 mM glucose + 10% dialyzed FBS, 0.00702 µM	118	111	114
RPMI 5 mM glucose + 10% dialyzed FBS, 0.0211 µM	117	120	120
RPMI 5 mM glucose + 10% dialyzed FBS, 0.0632 µM	104	109	112
RPMI 5 mM glucose + 10% dialyzed FBS, 0.19 µM	116	108	109
RPMI 5 mM glucose + 10% dialyzed FBS, 0.569 µM	78.2	25.2	49.6
RPMI 5 mM glucose + 10% dialyzed FBS, 1.71 µM	35.9	20.7	21
RPMI 5 mM glucose + 10% dialyzed FBS, 5.12 µM	35	22.5	21.2
RPMI 5 mM glucose + 10% dialyzed FBS, 15.4 µM	32	36.5	14.4
RPMI 5 mM glucose + 10% dialyzed FBS, 46.1 µM	67.1	59.5	2.04

O=C(CN1C(=O)C2(CCCC2)NC[C@H]1c1cc(F)cc(F)c1)Nc1ccc2c(c1)C[C@@]1(C2)C(=O)Nc2ncccc21
AUC of viability dose-response curve
Settings	NOMO1 [3]	P12-Ichikawa [2]	SEM cells [1]
HPLM + 10% dialyzed FBS	445	472	461
RPMI 5 mM glucose + 10% FBS	459	466	463
RPMI 5 mM glucose + 10% dialyzed FBS	467	471	446

cell viability [%], SEM cells [4]
Settings	HPLM + 10% dialyzed FBS	RPMI 5 mM glucose + 10% FBS
0.000781 µM	109	123
0.00234 µM	104	104
0.00702 µM	119	126
0.0211 µM	139	142
0.0632 µM	125	131
0.19 µM	131	136
0.569 µM	132	145
1.71 µM	140	131
5.12 µM	142	135
15.4 µM	114	129
46.1 µM	104	129

C[S+](=O)([O-])c1ccc([C@@H](O)[C@@H](CO)NC(=O)C(Cl)Cl)cc1
AUC of viability dose-response curve
Settings	NOMO1 [3]	P12-Ichikawa [2]	SEM cells [1]
HPLM + 10% dialyzed FBS	445	456	432
RPMI 5 mM glucose + 10% FBS	476	431	421
RPMI 5 mM glucose + 10% dialyzed FBS	455	420	450

OC1=CC2=C(C(=C1)O)C(=O)\C(=C(/O2)C3=CC(=C(O)C(=C3)O)O)O
AUC of viability dose-response curve
Settings	NOMO1 [3]	P12-Ichikawa [2]	SEM cells [1]
HPLM + 10% dialyzed FBS	451	454	462
RPMI 5 mM glucose + 10% FBS	470	471	460
RPMI 5 mM glucose + 10% dialyzed FBS	458	466	470

O=C1N(c2ccccc2)c2ccccc2C1(Cc1ccncc1)Cc1ccncc1
AUC of viability dose-response curve
Settings	HPLM + 10% dialyzed FBS	RPMI 5 mM glucose + 10% FBS	RPMI 5 mM glucose + 10% dialyzed FBS
NOMO1 [3]	462	473	465
P12-Ichikawa [2]	446	437	424

SEM cells [4], RPMI 5 mM glucose + 10% FBS
Settings	cell viability [%]
0.000781 µM	84.9
0.00234 µM	115
0.00702 µM	133
0.0211 µM	148
0.0632 µM	129
0.19 µM	43.9
0.569 µM	137
1.71 µM	94.4
5.12 µM	88.3
15.4 µM	108
46.1 µM	152

CCn1c(=O)c2c(nc(/C=C/c3ccc(OC)c(OC)c3)n2C)n(CC)c1=O
AUC of viability dose-response curve
Settings	NOMO1 [3]	P12-Ichikawa [2]	SEM cells [1]
HPLM + 10% dialyzed FBS	425	467	470
RPMI 5 mM glucose + 10% FBS	424	451	463
RPMI 5 mM glucose + 10% dialyzed FBS	436	464	472

Nc1cccc([S+](=O)([O-])N2CCCN([S+](=O)([O-])c3ccc4c(c3)OCCO4)CC2)c1
AUC of viability dose-response curve
Settings	NOMO1 [3]	P12-Ichikawa [2]	SEM cells [1]
HPLM + 10% dialyzed FBS	445	444	460
RPMI 5 mM glucose + 10% FBS	464	464	434
RPMI 5 mM glucose + 10% dialyzed FBS	447	460	437

C=C(c1ccc(C(=O)O)cc1)c1cc2c(cc1C)C(C)(C)CCC2(C)C
AUC of viability dose-response curve
Settings	NOMO1 [3]	P12-Ichikawa [2]	SEM cells [1]
HPLM + 10% dialyzed FBS	422	477	465
RPMI 5 mM glucose + 10% FBS	434	470	465
RPMI 5 mM glucose + 10% dialyzed FBS	431	468	461

Settings	cell viability [%]
P12-Ichikawa [5], HPLM + 10% dialyzed FBS, 0.000781 µM	113
P12-Ichikawa [5], HPLM + 10% dialyzed FBS, 0.00234 µM	119
P12-Ichikawa [5], HPLM + 10% dialyzed FBS, 0.00702 µM	121
P12-Ichikawa [5], HPLM + 10% dialyzed FBS, 0.0211 µM	121
P12-Ichikawa [5], HPLM + 10% dialyzed FBS, 0.0632 µM	126
P12-Ichikawa [5], HPLM + 10% dialyzed FBS, 0.19 µM	129
P12-Ichikawa [5], HPLM + 10% dialyzed FBS, 0.569 µM	125
P12-Ichikawa [5], HPLM + 10% dialyzed FBS, 1.71 µM	120
P12-Ichikawa [5], HPLM + 10% dialyzed FBS, 5.12 µM	124
P12-Ichikawa [5], HPLM + 10% dialyzed FBS, 15.4 µM	117
P12-Ichikawa [5], HPLM + 10% dialyzed FBS, 46.1 µM	114
SEM cells [4], RPMI 5 mM glucose + 10% dialyzed FBS, 0.000781 µM	95
SEM cells [4], RPMI 5 mM glucose + 10% dialyzed FBS, 0.00234 µM	110
SEM cells [4], RPMI 5 mM glucose + 10% dialyzed FBS, 0.00702 µM	134
SEM cells [4], RPMI 5 mM glucose + 10% dialyzed FBS, 0.0211 µM	116
SEM cells [4], RPMI 5 mM glucose + 10% dialyzed FBS, 0.0632 µM	116
SEM cells [4], RPMI 5 mM glucose + 10% dialyzed FBS, 0.19 µM	125
SEM cells [4], RPMI 5 mM glucose + 10% dialyzed FBS, 0.569 µM	120
SEM cells [4], RPMI 5 mM glucose + 10% dialyzed FBS, 1.71 µM	118
SEM cells [4], RPMI 5 mM glucose + 10% dialyzed FBS, 5.12 µM	111
SEM cells [4], RPMI 5 mM glucose + 10% dialyzed FBS, 15.4 µM	99.3
SEM cells [4], RPMI 5 mM glucose + 10% dialyzed FBS, 46.1 µM	83.5
